Reference: PMC10920890, “Biosensor and machine learning-aided engineering of an amaryllidaceae enzyme” (Nature Communications, 2024)

Molecular target: RamR (Salmonella enterica, UniProt Q8ZR43, K63T/L66M/C134D/S137G)
Details: variant 4NB2.1 (4NB2); LB medium, 37 °C; whole-cell biosensor

RamR, sequence (Q8ZR43 whole entry K63T/L66M/C134D/S137G): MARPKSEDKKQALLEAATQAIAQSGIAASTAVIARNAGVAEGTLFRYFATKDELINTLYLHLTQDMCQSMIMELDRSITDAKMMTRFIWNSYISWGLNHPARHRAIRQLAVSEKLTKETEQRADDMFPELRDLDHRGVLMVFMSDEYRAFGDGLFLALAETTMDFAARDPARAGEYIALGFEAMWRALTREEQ

Question: For `COc1ccc(CNCCc2ccc(O)cc2)cc1O` [4′-O-methylnorbelladine], which EC50 is on record?
Answer: 20 µM
